Measured values published in article PMC9913425, “Pentacyclic Triterpenoids-Based Ionic Compounds: Synthesis, Study of Structure–Antitumor Activity Relationship, Effects on Mitochondria and Activation of Signaling Pathways of Proliferation, Genome Reparation and Early Apoptosis” (Cancers, 2023).

Experiments:
Format in all cases: cell-based
γH2AX = experiment: Luminex xMAP DNA Damage/Genotoxicity panel, phosphorylated γH2AX; details: Jurkat cells; 6 and 12 h
From the text: The determination of proteins in a cell by Luminex xMAP technology is characterized by the presence of multiplex multiparametric analysis with the simultaneous use of a multiplex of antibodies with a fluorescent label and magnetic particles, thereby resulting in an increase in the sensitivity of the technique and expansion of the dynamic range, as well as an increase in detection accuracy. Luminex XMAP technology provides a simultaneous analysis of a sufficient number of different proteins in various types of biological fluids (plasma, serum, cerebrospinal fluid, follicular fluid, tissue lysate, etc.) and in cell supernatants. Consequently, multiplexing saves time/costs and ensures the same conditions for the measurements, which is essential for significance and statistical processing. Simultaneous measurement of cytokines by bead multiplex analysis has certain similarities with ELISA, in particular the use of antibodies, but has a fundamental difference in using magnetic fluorescent beads coupled to antikinase monoclonal antibodies.
Magnetic microspheres (stained inside with two fluorescent dyes) in combination with monoclonal antibodies against the analyzed analytes (the main intracellular kinases in this case) are incubated with the samples and standards; then, the samples/standards are incubated with biotinylated monoclonal antibodies against the analyzed analytes and, finally, with a solution of streptavidin–phycoerythrin. The Luminex technology identifies the different proteins present in each well and converts the mean fluorescence intensity (MFI) of each measured cytokine to pg/mL using software and standard curves. This approach is successfully applied in fundamental and clinical research. In this work, we analyzed various protein analytes that make up the phosphorylated and non-phosphorylated fractions of the main kinases in the signaling pathways: CREB, JNK, NFkB, p38, ERK1/2, Akt, p70S6K, STAT3, STAT5 proteins in six samples of lysates of Jurkat tumor cells by Luminex technology (MILLIPLEX® MAP 9-Plex Multi-Pathway 9-plex Magnetic Bead Kit).
Phosphorylation of histone H2AX at serine 139 (γH2AX) is an early stage in the cellular response to DNA damage, when the damage brings about formation of a double-strand break (DSB). γH2AX foci, considered as markers of DNA double-strand breaks, are easily detected by immunofluorescence microscopy and flow cytometry. The two main signaling pathways ATM/Chk2 and ATR/Chk1 respond to DNA damage and both lead to H2AX phosphorylation, but the ATR/Chk1 pathway causes γH2AX formation to a much lesser extent. The role of γH2AX in DNA repair is also discussed.
Incubation time with the test compounds was 6 and 12 h. p < 0.001 (***).

Jurkat = experiment: In vitro cytotoxicity, IC50 by flow cytometry (Guava ViaCount); details: Jurkat cells
How it was run: (§1)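 Cells were grown at 37 °C under 5% CO2; the Jurkat, K562 and HL60 lines were kept in RPMI 1640 with 10% FBS, […] and penicillin–streptomycin. Cells were seeded at 5 × 10^4 per well and incubated overnight. IC50 was derived from Guava ViaCount flow cytometry.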

K562 = experiment: as above
How it was run: as §1

U937 = experiment: as above
How it was run: (§2)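 Suspension lines kept in RPMI 1640 with 10% FBS and […] at 37 °C, 5% CO2; cells seeded at 5 × 10^4 per well and incubated overnight before compound exposure. Viability counted by flow cytometry with Guava ViaCount staining to derive IC50.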

HEK293 = experiment: as above; details: conditionally normal
How it was run: as §2

Jurkat cells [1] = experiment: Cell cycle analysis (Guava Cell Cycle Reagent); details: IC50 concentration, 24 h, flow histogram
Description: Our findings are consistent with the literature data that many ICs predominantly affect the G2 and S phases, reducing them.
The incubation time of ionic liquids with cells was 24 h. […] It is listed because the picture prints the label with values. / The fit parameters printed in each histogram (RMS, Mean G1, Mean G2, G2/G1, CV G1, CV G2) were left out as statistics of the cell-cycle model.

Jurkat cells [2] = experiment: Apoptosis/necrosis induction (Annexin V Alexa Fluor488, 7AAD staining); details: compound at IC50 concentration, incubation 2 h
From the text: Multiparametric evaluation of marker molecules, along with the detection of damage to the mitochondrial membrane, makes it possible to clearly determine the type of cell death. The method of cell staining with three different dyes (Annexin V Alexa Fluor488, 7AAD and MitoSense Red) provides simultaneous specification of various aspects of the state of the cell membrane, the state of DNA and the viability of mitochondria; together, it is a reliable sign of intrinsic and mitochondrial apoptosis pathway. Normal cells with intact mitochondrial membranes have high MitoSense Red fluorescence, while cells with decoupled oxidation and phosphorylation have much lower fluorescence. […]
Figure 1 The ratio of the level of mito-damage and the level of apoptosis in Jurkat cells of ionic compounds based on ursolic, oleanolic and betulinic acids.

STAT5 = experiment: Luminex xMAP Multi-Pathway 9-plex, tyrosine-phosphorylated STAT5; details: Jurkat cells; 12a 0.006 µM, 13d 0.004 µM per 100,000 cells; lasting up to 12 h
From the text: The determination of proteins in a cell by Luminex xMAP technology is characterized by the presence of multiplex multiparametric analysis with the simultaneous use of a multiplex of antibodies with a fluorescent label and magnetic particles, thereby resulting in an increase in the sensitivity of the technique and expansion of the dynamic range, as well as an increase in detection accuracy. Luminex XMAP technology provides a simultaneous analysis of a sufficient number of different proteins in various types of biological fluids (plasma, serum, cerebrospinal fluid, follicular fluid, tissue lysate, etc.) and in cell supernatants. […]
Magnetic microspheres (stained inside with two fluorescent dyes) in combination with monoclonal antibodies against the analyzed analytes (the main intracellular kinases in this case) are incubated with the samples and standards; then, the samples/standards are incubated with biotinylated monoclonal antibodies against the analyzed analytes and, finally, with a solution of streptavidin–phycoerythrin. The Luminex technology identifies the different proteins present in each well and converts the mean fluorescence intensity (MFI) of each measured cytokine to pg/mL using software and standard curves. […]
The specific role of STAT3 and STAT5 was assessed by changes in the content of tyrosine-phosphorylated forms of these proteins (STAT3(ph) and STAT5(ph)). […]

## CC(=O)[O-].C[n+]1ccn(CCCCCCOC(=O)[C@]23CCC(C)(C)CC2C2=CCC4[C@@]5(C)CC[C@H](O)C(C)(C)C5CC[C@@]4(C)[C@]2(C)CC3)c1 (stereo partly drawn) [13d, 1-(6-{[(3β)-3-Hydroxyolean-12-en-28-oyl]oxy}hexyl)-3-methylimidazolium Acetate]
γH2AX
  level of γH2AX (accumulation): low levels
Jurkat
  IC50: 4 ± 1 nM
K562; K562 cells
  IC50: 6 ± 1 nM
U937; U937 cells
  IC50: 5 ± 1 nM
HEK293; HEK293 cells
  IC50: 29 ± 2 nM
Jurkat cells [1]
  Freq Sub-G1 (hypodiploid cell population): 6.91%
Jurkat cells [2]
  Apoptosis (%) Early: 11.00%
  Apoptosis (%) Necrosis: 85.0%
  percentage of cells in the apoptotic state: 98.32%
STAT5
  increase in the content of STAT5: 3 fold

## CC1(C)CC[C@]2(C(=O)OCCCCCC[n+]3ccccc3)CC[C@]3(C)C(=CCC4[C@@]5(C)CC[C@H](O)C(C)(C)C5CC[C@]43C)C2C1 (stereo partly drawn) [12a, 1-(6-{[(3β)-3-Hydroxyolean-12-en-28-oyl]oxy}hexyl)-pyridinium bromide]
γH2AX
  level of γH2AX (accumulation): low levels
Jurkat; Homo sapiens, Jurkat
  IC50: 6 ± 1 nM
K562; Homo sapiens, K562, K562 cells
  IC50: 7 ± 1 nM
U937; Homo sapiens, U-937, U937 cells
  IC50: 6 ± 1 nM
HEK293; Homo sapiens, HEK293, HEK293 cells
  IC50: 44 ± 4 nM
Jurkat cells [2]
  Apoptosis (%) Early: 0%
  Apoptosis (%) Late: 22.63%
  Apoptosis (%) Necrosis: 65.18%
  percentage of cells in the apoptotic state: 87.81%
STAT5
  increase in the content of STAT5: 3 fold
